Test results reported in patent US20100137344A1, “INDUCTION OF ANALGESIA IN NEUROPATHIC PAIN” (University Court of the University of Edinburgh, priority 2006, published 2010).

What was measured:
[1] = tested on: rats sensitised by the TRPA1 activator cinnamaldehyde; assay: Cinnamaldehyde-induced sensitisation and its reversal by icilin (PWL, PWT); assay type: in vivo, rat; details: for Mean % reversal of mechanical sensitisation (after 15-30 mins) / Mean % reversal of thermal sensitisation (after 15-30 mins) / PWL (s) difference from control (+ icilin) / PWT (mN/mm^2) difference from control (+ icilin): icilin 10 nmol, i.t.
Experimental: (§1) Thermal sensitivity was assessed by measuring paw withdrawal latency (PWL, s) in response to a noxious thermal stimulus (Hargreaves' thermal stimulator, Linton Instrumentation, Diss, UK) directed to the hindpaw mid-plantar glabrous surface. Mechanical sensitivity was recorded as the paw withdrawal threshold (PWT, mN/mm^2) to calibrated von Frey filaments (Stoelting, Ill., US), as previously described^[39]. Sensitivity to noxious cold was assessed by placing animals in a waterbath with an aluminium floor containing 1 cm deep 4° C. water and counting the time the paw was held suspended over a 20 s period.
(§2) The following drugs were applied intrathecally in a 50 μl volume of saline-based vehicle at 37° C.: icilin (2.5-200 μM in saline with 0.2% dimethylformamide, DMF), LY 341495 (100 μM in saline), UBP 1112 (200 μM in saline), 2R,4R-APDC ((2R, 4R)-4-aminopyrrolidine-2,4-dicarboxylate), 300 μM in saline), ACPT-III ((1R,3R,4S)-1-aminocyclopentane-1,3,4-tricarboxylic acid), 3 mM in saline), AP-4, ((L-(1)-2-amino-4-phosphonobutyric acid), 3 mM in saline), naloxone (0.5 mM in saline), NMDA (75 μM in saline) and ACPC (1-aminocyclopropanecarboxylic acid, 15 μM in saline) (Tocris Cookson, Bristol, UK), (−)-menthol (1R,2S,5R-(−)-menthol, 4 mM in saline), cinnamaldehyde (1.5 mM in saline) and Ruthenium Red (5 μM in saline) (Sigma-Aldrich Co. Ltd, UK) and allicin (0.5 mM in saline with 0.5% DMF) and diallyl disulphide (DADS, 1 mM in saline with 0.5% DMF) (LKT Laboratories Inc., St Paul, Minn., USA). Drugs were injected into the L5/6 intrathecal space under brief halothane anaesthesia, using a 25-gauge needle microsyringe (BD Biosciences, Oxford, UK), as described previously^[39] in animals that were at peak levels of behavioural sensitisation. Behavioural reflex testing commenced 15 min following injection to allow recovery from anaesthesia^[40,41,42] and continued every 5 min thereafter until readings returned to baseline levels (n=6 in each case). We, and others^[40,41,42] find complete recovery from anaesthetic by 15 minutes. All appropriate controls were carried out to eliminate the possibility of effects due to vehicle or to injection procedure.
The TRPM8 channel activators, icilin and (−)-menthol were tested in CCI and naïve animals. The effects of icilin were additionally assessed in animals with CFA-induced inflammation or with lysolecithin-induced demyelination. Icilin was also co-administered with the μ-opioid receptor antagonist naloxone, the Group II metabotropic glutamate receptor (mGluR) antagonist, LY 341495, or the Group III mGluR antagonist, UBP 1112. The effects of these antagonists alone as well as effects of the Group II mGluR agonist, 2R,4R-APDC and the Group III mGluR agonists, ACPT-III and AP-4, were assessed in CCI animals. The TRPA1 channel activator, cinnamaldehyde, alone and with icilin, was tested in CCI animals and in naïve animals. Further TRPA1 channel activators, allicin and diallyl disulphide were assessed in naïve animals. Both icilin and cinnamaldehyde effects in CCI animals were also investigated in the additional presence of Ruthenium Red.
Icilin was applied at concentrations of 2.5-500 μM (in water with 0.2% DMF), by placing CCI or naïve rats unrestrained for 5 min in a 1 cm deep waterbath (sufficient to cover paws), which was thermostatically controlled to a temperature of 30° C., or by very lightly anaesthetising rats and immersing hindpaws in small tubes containing 5 ml icilin (500 μM-5 mM, with a vehicle of 45% dimethylformamide in 0.2% aqueous Tween 80) for 5 min, followed by sensory testing for 60-80 mins. The effects of (−)-menthol and its stereoisomers isomenthol (1S,2R,5R-menthol,) and (+)-menthol (1S,2R,5S(+)-menthol) (4-16 mM in 80% ethanol) were also assessed. Relevant vehicles were always assessed in similar experiments. As a contrast, the effect of cinnamaldehyde (1.5 mM in water) and the effect of cinnamaldehyde with additional icilin (80 μM in water with 0.2% DMF) were assessed in naïve animals. […]

[2] = tested on: SNL model of neuropathic pain; assay: SNL spinal nerve ligation model, Hargreaves' test, topical icilin; assay type: in vivo; details: icilin 200 μM topical
Experimental: The SNL model of neuropathic pain was set up according to Kim and Chung 1992 (Pain 50: 355-363). The Hargreaves' test for thermal hyperalgesia was carried out as described above and icilin (200 μM) was applied topically to the ipsilateral (⋄) and contralateral (▪) paw. Values are shown as means±SEM. † Indicates statistically significant reversal of sensitisation ipsilateral to nerve injury (see FIG. 1). No significant drug effects were seen on reflex withdrawal responses of the contralateral limb.

[3] = tested on: rats with lysolecithin-induced demyelination of sciatic nerve; assay: Intrathecal icilin in lysolecithin demyelination-induced pain model (PWL, PWT); assay type: in vivo, rat; details: icilin 10 nmol, i.t.
Experimental: Pain models were generated under halothane anaesthesia (Zeneca, Cheshire, UK). For the chronic constriction injury (CCI) model of neuropathic pain, four ligatures were tied loosely to constrict the sciatic nerve at mid-thigh level (as described previously^[39]). An inflammatory pain model was generated by injecting 100 μl of Complete Freund's Adjuvant (CFA, Sigma-Aldrich Ltd) into the ventral surface of the right hindpaw^[39]. A model of peripheral demyelination-induced pain was produced by focal application of lysolecithin to the sciatic nerve^[40]. Peak behavioural sensitisation was observed post-surgically between days 10-16 for CCI, 1-3 for CFA, and 7-14 for lysolecithin, when pharmacological and electrophysiological experiments and tissue removal were conducted.
as §1
as §2, with “Drugs were injected into the L5/6 intrathecal space under brief halothane anaesthesia, using a 25-gauge needle microsyringe (BD Biosciences, Oxford, UK), as described previously^[39] in animals that were at peak levels of behavioural sensitisation.” left out, “We, and others^[40,41,42] find complete recovery from anaesthetic by 15 minutes. All appropriate controls were carried out to eliminate the possibility of effects due to vehicle or to injection procedure.” left out
The TRPM8 channel activators, icilin and (−)-menthol were tested in CCI and naïve animals. The effects of icilin were additionally assessed in animals with CFA-induced inflammation or with lysolecithin-induced demyelination. […]

O=C1NC(c2cccc([N+](=O)[O-])c2)=CCN1c1ccccc1O [icilin, 1-(2′-hydroxyphenyl)-4-(3″-nitrophenyl)-1,2,3,6-tetrahydropyrimidin-2-one]
Mean % reversal of mechanical sensitisation (after 15-30 mins) ([1]; Cinnamaldehyde (intrathecal)): 92.6 ± 2.8% | Mean % reversal of thermal sensitisation (after 15-30 mins) ([1]; Cinnamaldehyde (intrathecal)): 91.5 ± 4.1% | PWL (s) difference from control (+ icilin) ([1]; Cinnamaldehyde (intrathecal)): 0.5 ± 1.8 s | PWT (mN/mm^2) difference from control (+ icilin) ([1]; Cinnamaldehyde (intrathecal)): 150.3 ± 125.2 mN/mm^2 | Mean % reversal of mechanical sensitisation (after 15-30 mins) ([1]; Cinnamaldehyde (topical)): 100.0 ± 0.0% | Mean % reversal of thermal sensitisation (after 15-30 mins) ([1]; Cinnamaldehyde (topical)): 92.0 ± 6.1% | PWL (s) difference from control (+ icilin) ([1]; Cinnamaldehyde (topical)): 0.4 ± 1.6 s | PWT (mN/mm^2) difference from control (+ icilin) ([1]; Cinnamaldehyde (topical)): 0.0 ± 0.0 mN/mm^2 | effect on sensitisation by topical cinnamaldehyde ([1]; topical icilin 200 μM, data not shown): reversed | analgesia, thermal hyperalgesia (Hargreaves' test) [2]: causes analgesia | Mean % reversal of mechanical sensitisation (after 15-30 mins) [3]: 63.3 ± 6.4% | Mean % reversal of thermal sensitisation (after 15-30 mins) [3]: 69.2 ± 5.1% | PWL (s) difference from control (+ icilin) [3]: 2.4 ± 1.2 s | PWT (mN/mm^2) difference from control (+ icilin) [3]: 1102.5 ± 422.5 mN/mm^2
